Experimental data as given in the NIST ThermoML archive (doi:10.1016/j.jct.2017.03.026).
Where “and” joins values, the source holds several entries; their conditions need not be identical. Identical values can stand only once.

Test: molar heat capacity at constant pressure
Details: 101.33 kPa, Crystal, Small (less than 1 g) adiabatic calorimetry

O.O.O.O.O.O=S(=O)([O-])[O-].[Cu+2] [copper(II) sulfate pentahydrate]
Details | molar heat capacity at constant pressure
233.45 K | 239.84 J/K/mol
234.05 K | 245.57 J/K/mol
234.17 K | 240.04 J/K/mol
234.4 K | 246.29 J/K/mol
234.6 K | 245.97 J/K/mol
234.74 K | 245.84 J/K/mol
235.43 K | 246.76 J/K/mol
235.54 K | 247.78 J/K/mol
235.9 K | 247.43 J/K/mol
236.03 K | 249.81 J/K/mol
236.12 K | 248.09 J/K/mol
236.33 K | 241.79 J/K/mol
236.34 K | 242 J/K/mol
236.67 K | 248.93 J/K/mol
236.8 K | 248.39 J/K/mol
237.18 K | 249.45 J/K/mol
237.49 K | 248.39 J/K/mol
237.8 K | 249.96 J/K/mol
238.17 K | 249.66 J/K/mol
238.48 K | 250.93 J/K/mol
238.49 K | 242.57 J/K/mol
238.86 K | 250.68 J/K/mol
238.93 K | 250.66 J/K/mol
239.22 K | 244.58 J/K/mol
239.28 K | 253.63 J/K/mol
239.54 K | 251.41 J/K/mol
239.78 K | 251.78 J/K/mol
240 K | 244.6 J/K/mol
240.05 K | 252.46 J/K/mol
240.22 K | 252.08 J/K/mol
240.64 K | 245.25 J/K/mol
240.9 K | 252.78 J/K/mol
241.06 K | 253.96 J/K/mol
241.18 K | 254.16 J/K/mol
241.62 K | 254.68 J/K/mol
242.1 K | 246.15 J/K/mol
242.31 K | 255.3 J/K/mol and 255.28 J/K/mol
242.34 K | 255.3 J/K/mol
242.5 K | 257.5 J/K/mol
242.81 K | 246.88 J/K/mol
243 K | 255.25 J/K/mol
243.44 K | 256.35 J/K/mol
243.63 K | 256.1 J/K/mol
243.67 K | 255.75 J/K/mol
244.35 K | 256.2 J/K/mol
244.56 K | 257.83 J/K/mol
244.9 K | 258.25 J/K/mol
244.96 K | 248.55 J/K/mol
244.99 K | 248.48 J/K/mol
245.02 K | 258.05 J/K/mol
245.68 K | 259.42 J/K/mol
245.7 K | 261.47 J/K/mol and 258.65 J/K/mol
246.21 K | 260.25 J/K/mol
246.37 K | 259.35 J/K/mol
246.81 K | 261 J/K/mol
247.04 K | 259.87 J/K/mol
247.17 K | 250.06 J/K/mol
247.49 K | 261.87 J/K/mol
247.71 K | 260.55 J/K/mol
247.81 K | 250.77 J/K/mol
247.93 K | 262.47 J/K/mol
248.38 K | 262.79 J/K/mol
248.76 K | 263.79 J/K/mol
248.87 K | 265.57 J/K/mol
249.05 K | 263.94 J/K/mol and 263.89 J/K/mol
249.35 K | 251.83 J/K/mol
249.73 K | 264.77 J/K/mol
250 K | 252.3 J/K/mol
250.03 K | 265.72 J/K/mol
250.16 K | 265.92 J/K/mol
250.4 K | 265.12 J/K/mol
250.65 K | 253.29 J/K/mol
250.81 K | 264.67 J/K/mol
251.06 K | 267.06 J/K/mol
251.11 K | 266.37 J/K/mol
251.28 K | 267.34 J/K/mol
251.4 K | 267.19 J/K/mol
251.54 K | 253.61 J/K/mol
251.7 K | 267.09 J/K/mol
251.73 K | 268.24 J/K/mol
252 K | 268.41 J/K/mol
252.02 K | 268.79 J/K/mol
252.3 K | 268.34 J/K/mol
252.43 K | 268.74 J/K/mol
252.44 K | 269.16 J/K/mol
252.6 K | 268.74 J/K/mol
252.91 K | 269.29 J/K/mol
253.1 K | 269.76 J/K/mol
253.21 K | 269.44 J/K/mol
253.49 K | 254.99 J/K/mol
253.51 K | 272.53 J/K/mol
253.55 K | 268.86 J/K/mol
253.73 K | 255.6 J/K/mol
253.77 K | 270.41 J/K/mol
253.82 K | 269.46 J/K/mol
254.13 K | 270.51 J/K/mol
254.44 K | 270.78 J/K/mol
254.48 K | 271.06 J/K/mol
254.67 K | 267.86 J/K/mol
254.79 K | 270.11 J/K/mol
255.09 K | 270.86 J/K/mol
255.11 K | 269.99 J/K/mol
255.15 K | 266.89 J/K/mol
255.4 K | 268.06 J/K/mol
255.71 K | 269.24 J/K/mol
255.78 K | 268.39 J/K/mol
255.79 K | 265.69 J/K/mol
255.93 K | 257.4 J/K/mol
256.02 K | 270.78 J/K/mol
256.31 K | 256.81 J/K/mol
256.34 K | 267.49 J/K/mol
256.46 K | 267.76 J/K/mol
256.65 K | 267.31 J/K/mol
256.92 K | 265.79 J/K/mol
256.96 K | 267.59 J/K/mol
257.13 K | 266.91 J/K/mol
257.27 K | 266.51 J/K/mol
257.59 K | 266.84 J/K/mol
257.81 K | 266.84 J/K/mol
257.9 K | 267.19 J/K/mol
258.04 K | 266.69 J/K/mol
258.2 K | 258.77 J/K/mol
258.23 K | 266.29 J/K/mol
258.28 K | 269.36 J/K/mol
258.49 K | 266.59 J/K/mol
258.54 K | 266.91 J/K/mol
258.86 K | 266.27 J/K/mol
259.1 K | 259.75 J/K/mol
259.16 K | 267.91 J/K/mol and 267.81 J/K/mol
259.17 K | 266.56 J/K/mol
259.54 K | 267.76 J/K/mol
259.84 K | 267.96 J/K/mol
259.85 K | 268.01 J/K/mol
260 K | 260.1 J/K/mol
260.17 K | 268.06 J/K/mol
260.28 K | 269.14 J/K/mol
260.42 K | 260.6 J/K/mol
260.48 K | 269.74 J/K/mol
260.5 K | 268.36 J/K/mol
260.81 K | 268.66 J/K/mol
261.13 K | 268.81 J/K/mol
261.17 K | 270.24 J/K/mol
261.39 K | 272.21 J/K/mol
261.41 K | 270.41 J/K/mol
261.45 K | 269.31 J/K/mol
261.76 K | 270.09 J/K/mol
261.85 K | 271.36 J/K/mol
261.91 K | 260.82 J/K/mol
262.08 K | 270.58 J/K/mol
262.39 K | 270.73 J/K/mol
262.53 K | 272.18 J/K/mol and 271.23 J/K/mol
262.65 K | 262.42 J/K/mol
262.71 K | 270.93 J/K/mol
263.03 K | 271.38 J/K/mol
263.24 K | 272.33 J/K/mol
263.34 K | 272.38 J/K/mol
263.65 K | 274.08 J/K/mol
263.66 K | 273.13 J/K/mol
